US7709471B2, “Compounds” (AstraZeneca AB, priority 2006, dated 2010)

What was measured:
[1] = system: human colon tumour cell line HT29; test: Cellular Assay (phosphohistone H3 Ser10 mitotic marker, HT29); type: cell-based; details: HT-29, 24 h, HT29 cells, read-out: IC50 (cellular assay, phosphohistone H3)
recombinant Plk1 = recombinant Plk1 (Homo sapiens, UniProt P53350); test: In Vitro Plk1 Enzyme Assay (SPA, GST-Cdc25C phosphorylation); type: biochemical; details: ATP 64 nM, 90 minutes, read-out: IC50 (Plk1 enzyme inhibition)
Chain of recombinant Plk1 (P53350 whole entry): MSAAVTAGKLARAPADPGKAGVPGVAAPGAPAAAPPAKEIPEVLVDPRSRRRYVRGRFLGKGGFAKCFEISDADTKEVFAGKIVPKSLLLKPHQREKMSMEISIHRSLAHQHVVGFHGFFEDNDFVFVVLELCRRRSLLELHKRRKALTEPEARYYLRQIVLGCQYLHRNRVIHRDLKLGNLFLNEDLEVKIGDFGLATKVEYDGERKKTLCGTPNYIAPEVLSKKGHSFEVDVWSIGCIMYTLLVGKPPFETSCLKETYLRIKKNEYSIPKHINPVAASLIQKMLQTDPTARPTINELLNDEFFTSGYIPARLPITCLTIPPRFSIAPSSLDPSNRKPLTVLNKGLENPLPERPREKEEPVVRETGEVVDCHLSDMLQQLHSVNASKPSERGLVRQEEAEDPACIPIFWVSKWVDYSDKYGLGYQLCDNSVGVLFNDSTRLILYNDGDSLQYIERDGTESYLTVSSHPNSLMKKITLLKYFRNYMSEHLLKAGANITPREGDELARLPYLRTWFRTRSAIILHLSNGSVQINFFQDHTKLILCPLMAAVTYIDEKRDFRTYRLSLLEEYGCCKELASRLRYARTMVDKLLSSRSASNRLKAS

SMILES | IC50 [1] | IC50 (recombinant Plk1)
COc1cc(C(=O)NC2CCN(C)CC2)ccc1Nc1ncc2c(n1)N(C1CCCC1)CC1(CC1)C(=O)N2C [Example 246, 4-(9′-cyclopentyl-5′-methyl-6′-oxo-5′,6′,8′,9′-tetrahydrospiro[cyclopropane-1,7′-pyrimido[5,4-b][1,4]diazepine]-2′-ylamino)-N-(1-methylpiperidin-4-yl)-3-methoxybenzamide] | < 300 nM | < 300 nM
CN1CCC(NC(=O)c2ccc(Nc3ncc4c(n3)N(c3ccccc3)CCC(=O)N4)c(Cl)c2)CC1 [Example 248, 3-chloro-N-(1-methyl-4-piperidyl)-4-[(3-oxo-6-phenyl-2,6,8,10-tetrazabicyclo[5.4.0]undeca-8,10,12-trien-9-yl)amino]benzamide] | < 30000 nM | < 100000 nM
CN(C)CC(C)(C)CNC(=O)c1ccc(Nc2ncc3c(n2)N(C2CCCC2)CCC(=O)N3)cc1 [Example 253, 4-[(6-cyclopentyl-3-oxo-2,6,8,10-tetrazabicyclo[5.4.0]undeca-8,10,12-trien-9-yl)amino]-N-(3-dimethylamino-2,2-dimethyl-propyl)benzamide] | < 30000 nM | < 100000 nM
O=C1CCN(C2CCCC2)c2nc(Nc3ccc(C(=O)NCCN4CCOCC4)cc3Cl)ncc2N1 [Example 257, 3-chloro-4-[(6-cyclopentyl-3-oxo-2,6,8,10-tetrazabicyclo[5.4.0]undeca-8,10,12-trien-9-yl)amino]-N-(2-morpholin-4-ylethyl)benzamide] | < 30000 nM | < 100000 nM
CN1CCC(NC(=O)c2cnc(Nc3ncc4c(n3)N(C3CCCC3)CCC(=O)N4C)s2)CC1 [Example 263, 2-[(6-cyclopentyl-2-methyl-3-oxo-2,6,8,10-tetrazabicyclo[5.4.0]undeca-8,10,12-trien-9-yl)amino]-N-(1-methyl-4-piperidyl)1,3-thiazole-5-carboxamide] | < 30000 nM | < 100000 nM
CN1CCC(NC(=O)c2cnc(Nc3ncc4c(n3)N(C3CCCC3)CCC(=O)N4C)o2)CC1 [Example 264, 2-[(6-cyclopentyl-2-methyl-3-oxo-2,6,8,10-tetrazabicyclo[5.4.0]undeca-8,10,12-trien-9-yl)amino]-N-(1-methyl-4-piperidyl)1,3-oxazole-5-carboxamide] | < 30000 nM | < 100000 nM
CN1CCC(NC(=O)c2coc(Nc3ncc4c(n3)N(C3CCCC3)CCC(=O)N4C)n2)CC1 [Example 265, 2-[(6-cyclopentyl-2-methyl-3-oxo-2,6,8,10-tetrazabicyclo[5.4.0]undeca-8,10,12-trien-9-yl)amino]-N-(1-methyl-4-piperidyl)1,3-oxazole-4-carboxamide] | < 30000 nM | < 100000 nM
CN1CCC(NC(=O)c2ccc(Nc3ncc4c(n3)N(C3CCCC3)CCC(=O)N4C)nc2)CC1 [Example 269, 6-[(6-cyclopentyl-2-methyl-3-oxo-2,6,8,10-tetrazabicyclo[5.4.0]undeca-8,10,12-trien-9-yl)amino]-N-(1-methyl-4-piperidyl)pyridine-3-carboxamide] | < 1000 nM | < 300 nM
CN1CCC(NC(=O)c2ccc(Nc3ncc4c(n3)N(C3CCCC3)CCC(=O)N4C)cn2)CC1 [Example 270, 5-[(6-cyclopentyl-2-methyl-3-oxo-2,6,8,10-tetrazabicyclo[5.4.0]undeca-8,10,12-trien-9-yl)amino]-N-(1-methyl-4-piperidyl)pyridine-2-carboxamide] | < 30000 nM | < 300 nM
COc1cc(C(=O)NC2CCN(C)CC2)ccc1Nc1ncc2c(n1)N(CC(=N)OC(C)CC(C)C)CCC(=O)N2C (stereo not shown) [Example 272, 3-methoxy-4-[[6-methyl-2-[(4-methylpentan-2-yloxycarbonimidoyl)methyl]-5-oxo-2,6,9,11-tetrazabicyclo[5.4.0]undeca-7,9,11-trien-10-yl]amino]-N-(1-methyl-4-piperidyl)benzamide] | < 30000 nM | < 1000 nM
COc1cc(C(=O)NC2CCCCC2)ccc1Nc1ncc2c(n1)N(CCN(C)C)CCC(=O)N2C [Example 275, N-cyclohexyl-4-[[2-(2-dimethylaminoethyl)-6-methyl-5-oxo-2,6,9,11-tetrazabicyclo[5.4.0]undeca-7,9,11-trien-10-yl]amino]-3-methoxy-benzamide] | < 30000 nM | < 100000 nM
COc1cc(C(=O)NC2CCCCC2)ccc1Nc1ncc2c(n1)N(CCN1CCOCC1)CCC(=O)N2C [Example 277, N-cyclohexyl-3-methoxy-4-[[6-methyl-2-(2-morpholin-4-ylethyl)-5-oxo-2,6,9,11-tetrazabicyclo[5.4.0]undeca-7,9,11-trien-10-yl]amino]benzamide] | < 30000 nM | < 100000 nM
CCOc1cc(C(=O)NC2CCN(C)CC2)ccc1Nc1ncc2c(n1)N(C(C)C)CCC(=O)N2C [Example 281, 3-ethoxy-4-[(6-methyl-5-oxo-2-propan-2-yl-2,6,9,11-tetrazabicyclo[5.4.0]undeca-7,9,11-trien-10-yl)amino]-N-(1-methyl-4-piperidyl)benzamide] | < 1000 nM | < 300 nM
CCOc1cc(C(=O)NC2CCN(CC)CC2)ccc1Nc1ncc2c(n1)N(C(C)C)CCC(=O)N2C [Example 282, 3-ethoxy-N-(1-ethyl-4-piperidyl)-4-[(6-methyl-5-oxo-2-propan-2-yl-2,6,9,11-tetrazabicyclo[5.4.0]undeca-7,9,11-trien-10-yl)amino]benzamide] | < 1000 nM | < 1000 nM
CCOc1cc(C(=O)N[C@H]2C[C@H]3CCC[C@@H](C2)N3C)ccc1Nc1ncc2c(n1)N(C(C)C)CCC(=O)N2C [Example 283, 3-ethoxy-N-[(1S,5R)-9-methyl-9-azabicyclo[3.3.1]non-7-yl]-4-[(6-methyl-5-oxo-2-propan-2-yl-2,6,9,11-tetrazabicyclo[5.4.0]undeca-8,10,12-trien-10-yl)amino]benzamide] | < 300 nM | < 300 nM
CCCN1CCC(NC(=O)c2ccc(Nc3ncc4c(n3)N(C3CCCC3)CCC(=O)N4C)c(OC)c2)CC1 [Example 314, 4-[(2-cyclopentyl-6-methyl-5-oxo-2,6,9,11-tetrazabicyclo[5.4.0]undeca-7,9,11-trien-10-yl)amino]-3-methoxy-N-(1-propyl-4-piperidyl)benzamide] | < 300 nM | < 300 nM
CN(C)CCNC(=O)c1ccc(Nc2ncc3c(n2)N(C2CCCC2)CCC(=O)N3C)c(Cl)c1 [Example 315, 3-chloro-4-[(2-cyclopentyl-6-methyl-5-oxo-2,6,9,11-tetrazabicyclo[5.4.0]undeca-7,9,11-trien-10-yl)amino]-N-(2-dimethylaminoethyl)benzamide] | < 300 nM | < 300 nM
CCN1CCC(NC(=O)c2ccc(Nc3ncc4c(n3)N(C3CCCC3)CCC(=O)N4C)c(Cl)c2)CC1 [Example 316, 3-chloro-4-[(2-cyclopentyl-6-methyl-5-oxo-2,6,9,11-tetrazabicyclo[5.4.0]undeca-7,9,11-trien-10-yl)amino]-N-(1-ethyl-4-piperidyl)benzamide] | < 300 nM | < 300 nM

The remaining lines, values ahead:

IC50 [1] | IC50 (recombinant Plk1) | SMILES
< 300 nM | < 300 nM | CN(C)CCCNC(=O)c1ccc(Nc2ncc3c(n2)N(C2CCCC2)CCC(=O)N3C)c(Cl)c1 [Example 317, 3-chloro-4-[(2-cyclopentyl-6-methyl-5-oxo-2,6,9,11-tetrazabicyclo[5.4.0]undeca-7,9,11-trien-10-yl)amino]-N-(3-dimethylaminopropyl)benzamide]
< 300 nM | < 300 nM | CN1C(=O)CCN(C2CCCC2)c2nc(Nc3ccc(C(=O)NCCN4CCCC4)cc3Cl)ncc21 [Example 318, 3-chloro-4-[(2-cyclopentyl-6-methyl-5-oxo-2,6,9,11-tetrazabicyclo[5.4.0]undeca-7,9,11-trien-10-yl)amino]-N-(2-pyrrolidin-1-ylethyl)benzamide]
< 300 nM | < 300 nM | COc1cc(C(=O)NC2CCN(CC3CC3)CC2)ccc1Nc1ncc2c(n1)N(C1CCCC1)CCC(=O)N2C [Example 319, 4-[(2-cyclopentyl-6-methyl-5-oxo-2,6,9,11-tetrazabicyclo[5.4.0]undeca-7,9,11-trien-10-yl)amino]-N-[1-(cyclopropylmethyl)-4-piperidyl]-3-methoxy-benzamide]
< 300 nM | < 300 nM | COc1cc(C(=O)NC2CCN(C)CC2)c(Cl)cc1Nc1ncc2c(n1)N(C1CCCC1)CCC(=O)N2C [Example 320, 2-chloro-4-[(2-cyclopentyl-6-methyl-5-oxo-2,6,9,11-tetrazabicyclo[5.4.0]undeca-7,9,11-trien-10-yl)amino]-5-methoxy-N-(1-methyl-4-piperidyl)benzamide]
< 300 nM | < 300 nM | CN1C(=O)CCN(C2CCCC2)c2nc(Nc3cc(F)c(C(=O)N[C@@H]4CCNC4)cc3Cl)ncc21 [Example 321, 5-chloro-4-[(2-cyclopentyl-6-methyl-5-oxo-2,6,9,11-tetrazabicyclo[5.4.0]undeca-7,9,11-trien-10-yl)amino]-2-fluoro-N-[(3R)-pyrrolidin-3-yl]benzamide]
< 300 nM | < 300 nM | CN1CCC(NC(=O)c2cc(Cl)c(Nc3ncc4c(n3)N(C3CCCC3)CCC(=O)N4C)cc2F)CC1 [Example 322, 5-chloro-4-[(2-cyclopentyl-6-methyl-5-oxo-2,6,9,11-tetrazabicyclo[5.4.0]undeca-7,9,11-trien-10-yl)amino]-2-fluoro-N-(1-methyl-4-piperidyl)benzamide]
< 300 nM | < 1000 nM | CCN1CCC(NC(=O)c2cc(Cl)c(Nc3ncc4c(n3)N(C3CCCC3)CCC(=O)N4C)cc2F)CC1 [Example 323, 5-chloro-4-[(2-cyclopentyl-6-methyl-5-oxo-2,6,9,11-tetrazabicyclo[5.4.0]undeca-7,9,11-trien-10-yl)amino]-N-(1-ethyl-4-piperidyl)-2-fluoro-benzamide]
< 300 nM | < 300 nM | CN1CC[C@@H](NC(=O)c2cc(Cl)c(Nc3ncc4c(n3)N(C3CCCC3)CCC(=O)N4C)cc2F)C1 [Example 325, 5-chloro-4-[(2-cyclopentyl-6-methyl-5-oxo-2,6,9,11-tetrazabicyclo[5.4.0]undeca-7,9,11-trien-10-yl)amino]-2-fluoro-N-[(3R)-1-methylpyrrolidin-3-yl]benzamide]
